Key:
Assay type in all cases: in vivo
[1] = system: neuropathic TRAP^hM4 mice; assay: Neuropathic (spared nerve injury) reflexive and affective-motivational pain behaviors; settings: day 42 postinjury
From the text: To induce a chronic pain state, we used a modified version of the Spared Nerve Injury (SNI) model of neuropathic pain, as previously described (70). This model entails surgical section of two of the sciatic nerve branches (common peroneal and tibial branches) while sparing the third (sural branch). […] To perform this peripheral nerve injury procedure, anesthesia was induced and maintained throughout surgery with isoflurane (4% induction, 1.5% maintenance in oxygen). The left hind leg was shaved and wiped clean with alcohol and betadine. We made a 1-cm incision in the skin of the mid-dorsal thigh, approximately where the sciatic nerve trifurcates. […] Mice were then returned to their home cage and closely monitored over the following three days for well-being.
We habituated mice inside individual red plastic cylinders (10.16-cm D) on a raised flat, perforated metal platform (60.96-cm H) for 3 days prior to the start of behavioral sensory testing. After basal thermal and mechanical thresholds were measured, mice underwent a peripheral nerve injury surgery (Spared Nerve Injury, SNI; see “Chronic neuropathic pain model” above for details of the surgical procedure). […]

[2] = system: neuropathic TRAP^hM4 mice; assay: Two-chamber thermal escape-avoidance (cold place aversion) assay; settings: floor of one chamber cooled from 30° to 10° C.
Method: To evaluate neuropathic adaptive cool/cold avoidance behavior, mice with SNI freely explored a two-temperature choice chamber. The chamber was constructed from adjoining two thermal plates (Bioseb): one reference plate set at 30° C., and a test plate with the temperature adjusted to either 30, 25, 20, 15, or 10° C. for independent trials. The test plate temperature order was randomized for each trial within the day. The chamber (white opaque plastic with no distinguishing features and no divider, 30.48×15.24×15.24 cm) was fitted onto the conjoined plates. At Day 56 post SNI and at 30-min post CNO injection, we placed mice on the reference plate facing the back wall. Mice then freely explored the chamber for 5 min, while an overhead camera recorded the chamber position and locomotion. After each trial, the mouse was returned to the holding cylinder, while the test plate temperature was rapidly cooled or heated to the next randomly assigned temperature trial. This procedure was repeated until all temperature trials were collected (6 temperature trials total). Video files for each trial were later analyzed using automated tracking software (Ethovision, Noldus) for path tracking, time spent on the test plate, and number of entries onto the test plate.

o-TRAP^hM4 mice = assay: Pain behaviors evoked by optogenetic activation of nociceptors (o-TRAP^hM4); settings: noxious transdermal light stimuli
From the text: Different AAV serotypes display unique infection tropisms. […] To express the light-sensitive cation channel channelrhodopsin2 (ChR2) in putative primary afferent nociceptors, we intrathecally injected AAV6-hSyn-ChR2(H134R)-eYFP immediately following the i.c. BLA injections of AAV-DIO-DREADD(Gi)-mCherry in TRAP mice while remaining anesthetized under isoflurane (1-2% maintenance). Specifically, we shaved a small patch of fur on the back, wiped with alcohol and Betadine, and then inserted a 33G beveled needle connected to a WPI Nanofil syringe between the L5/L6 vertebrae and through the dura (confirmation by presence of reflexive tail flick). We slowly administered the virus was over 20 s. We retuned mice to their home cage for 4-6 weeks before behavioral verification of ChR2 expression. […] As we sought expression in lumbar DRGs for the purposes of our behavioral experiments that involve sensory testing on the hind limbs, we performed a behavioral screening of each mouse for transdermal light-responsivity when light was applied to the hindpaw. We placed mice inside individual red plastic cylinders (10.16-cm D) on a thin glass surface. […] We measured whether an immediate nociceptive hindpaw reflex and/or pain affective-motivational behaviors (described below) occurred in response to the light indicated ChR2 expression in nociceptors. […]

C[N+]1([O-])CCN(C2=Nc3cc(Cl)ccc3Nc3ccccc32)CC1 [CNO, clozapine-N-oxide]
reflexive hypersensitivity [1]: did not alter
neuropathic affective-motivational behaviors ([1]; regardless of stimulus intensity or modality): profound decrease
preference between cold and neutral temperature chambers [2]: near-total indifference
attending and escape behaviors (o-TRAP^hM4 mice): reduces
